{"source": "patent US20160106102A1", "about": "“KNOWN AND NEW HETEROCYCLIC COMPOUNDS AS PEST CONTROL AGENTS” (BAYER CROPSCIENCE AKTIENGESELLSCHAFT, priority 2013, published 2016)", "data": [{"tested_on": "Myzus persicae", "assay": "Myzus persicae - sachet test", "format": "in vivo", "details": "application rate of 6 ppm in nutrient medium; 100% = all animals killed", "protocol": "(§1) Myzus persicae—Sachet Test Solvent: 2% by vol. of N-methylpyrrolidone • 2% by vol. of diacetone alcohol To produce an appropriate active ingredient formulation, the active ingredient is mixed with the specified amounts of solvent and the concentrate is diluted to the desired concentration with water. The active ingredient formulation is added to a specific nutrient medium in the desired concentration by pipetting. This plate is sealed and combined with a further plate populated with the green peach aphid (Myzus persicae). After the desired time, the kill in % is determined. 100% means that all the animals have been killed; 0% means that no animals have been killed.", "units": {"efficacy (kill in %)": "%"}, "values": [{"smiles": "O=C(Nc1ccn(-c2ccc(F)cc2F)n1)c1cccnc1", "note": "[Compound I-1-85]", "efficacy (kill in %)": 100}, {"smiles": "COC(=O)CCCn1nc(NC(=O)c2cccnc2)cc1C", "note": "[Compound I-1-67]", "efficacy (kill in %)": 100}]}, {"tested_on": "Myzus persicae", "assay": "Myzus persicae - sachet test", "format": "in vivo", "details": "application rate of 30 ppm in nutrient medium; 100% = all animals killed", "protocol": "as §1", "units": {"efficacy (kill in %)": "%"}, "values": [{"smiles": "CCn1nnc(NC(=O)c2cccnc2)n1", "note": "[Compound I-4-1]", "efficacy (kill in %)": 100}, {"smiles": "O=C(Nc1ccn(Cc2ccc(Cl)cc2Cl)n1)c1cccnc1", "note": "[Compound I-1-82]", "efficacy (kill in %)": 100}, {"smiles": "O=C(Nc1ccn(-c2ccc(F)cc2F)n1)c1cccnc1", "note": "[Compound I-1-85]", "efficacy (kill in %)": 100}, {"smiles": "COC(=O)CCCn1nc(NC(=O)c2cccnc2)cc1C", "note": "[Compound I-1-67]", "efficacy (kill in %)": 100}, {"smiles": "CCOC(=O)Cn1ccc(NC(=O)c2cccnc2)n1", "note": "[Compound I-1-69]", "efficacy (kill in %)": 100}]}, {"tested_on": "not listed separately", "assay": "log P determination by LC-MS in the acidic range", "format": "physicochemical", "details": "LC-MS in the acidic range", "excerpt": "(§2) The LC-MS determination in the acidic range is effected at pH 2.7 using 0.1% aqueous formic acid and acetonitrile (contains 0.1% formic acid) as eluents, linear gradient from 10% acetonitrile to 95% acetonitrile. Alternatively, the determination is effected in the acidic range at pH 2.3 using 0.1% aqueous phosphoric acid and acetonitrile as eluents; linear gradient from 10% acetonitrile to 95% acetonitrile.", "values": [{"smiles": "Cc1cc(NC(=O)c2cnc(Cl)c(Cl)c2)nn1Cc1ccc(F)cc1", "note": "[Compound I-1-97]", "log P (acid)": 3.23}, {"smiles": "Cc1cc(NC(=O)c2cccnc2)nn1C(=O)c1cccc(Cl)c1", "note": "[Compound I-1-127]", "log P (acid)": 1.92}, {"smiles": "Cc1cc(NC(=O)c2ccnnc2)nn1Cn1nc(C)n(C2CC2)c1=O", "note": "[Compound I-1-151]", "log P (acid)": 0.92}, {"smiles": "Cc1cc(NC(=O)c2cncc(Br)c2)nn1Cc1cccc(F)c1", "note": "[Compound I-1-107]", "log P (acid)": 2.71}, {"smiles": "O=C(Nc1ccn(-c2nccs2)n1)c1cccnc1", "note": "[Compound I-1-273]", "log P (acid)": 1.16}, {"smiles": "O=C(Nc1nn(Cc2ncccn2)cc1Cl)c1cccnc1", "note": "[Compound I-1-137]", "log P (acid)": 0.58}, {"smiles": "Cc1cc(NC(=O)c2cccnc2)nn1-c1ccc(Cl)c(Cl)c1", "note": "[Compound I-1-206]", "log P (acid)": 2.59}, {"smiles": "Cc1cc(N(Cc2ccc3nsnc3c2)C(=O)c2cccnc2)nn1Cc1ccc2nsnc2c1", "note": "[Compound I-1-343]", "log P (acid)": 2.57}, {"smiles": "Cc1cc(NC(=O)c2cncc(F)c2)nn1CC(=O)O", "note": "[Compound I-1-114]", "log P (acid)": 0.87}, {"smiles": "Cc1cc(NC(=O)c2ccnnc2)nn1Cn1cccn1", "note": "[Compound I-1-240]", "log P (acid)": 0.91}, {"smiles": "COc1ccc(-n2ccc(NC(=O)c3cccnc3)n2)cc1", "note": "[Compound I-1-271]", "log P (acid)": 1.6}, {"smiles": "Cn1nc(NC(=O)c2cccnc2)c(C#N)c1[S+](C)[O-]", "note": "(centres unmarked) [Compound I-1-141]", "log P (acid)": 0.06}, {"smiles": "Cc1cc(NC(=O)c2ccc(Cl)nc2)nn1Cc1cccc(F)c1", "note": "[Compound I-1-106]", "log P (acid)": 2.6}, {"smiles": "Cn1nc(NC(=O)c2cccnc2)c(Br)c1OC(F)F", "note": "[Compound I-1-47]", "log P (acid)": 1.13}, {"smiles": "Cc1ccc(C(=O)Nc2cc(C)n(Cc3ccc(F)cc3)n2)cn1", "note": "[Compound I-1-109]", "log P (acid)": 1.76}, {"smiles": "CCOC(=O)Cn1nc(NC(=O)c2cncc(F)c2)cc1C", "note": "[Compound I-1-59]", "log P (acid)": 1.53}, {"smiles": "Cc1ccc(C(=O)Nc2cc(C)n(Cc3ccccc3F)n2)cn1", "note": "[Compound I-1-102]", "log P (acid)": 1.73}, {"smiles": "COc1ccc(C(=O)Nc2cc(C)n(Cc3ccc(F)cc3)n2)cn1", "note": "[Compound I-1-110]", "log P (acid)": 2.47}, {"smiles": "Cc1cc(C)nc(-n2nc(NC(=O)c3ccnnc3)cc2C)n1", "note": "[Compound I-1-248]", "log P (acid)": 1.53}, {"smiles": "COc1nn(Cn2nc(NC(=O)c3ccnnc3)cc2C)c(=O)n1C1CC1", "note": "[Compound I-1-152]", "log P (acid)": 1.17}, {"smiles": "Cc1cc(NC(=O)c2cnc(Cl)c(Cl)c2)nn1Cc1ccccc1F", "note": "[Compound I-1-103]", "log P (acid)": 3.28}]}, {"tested_on": "not listed separately", "assay": "log P determination by LC-MS in the acidic range", "format": "physicochemical", "details": "Table 2, compounds of the formula (I-2); acidic range pH 2.7 or pH 2.3", "excerpt": "as §2", "values": [{"smiles": "COc1cc(OC)nc(-n2cnc(NC(=O)c3cccnc3)n2)n1", "note": "[Compound I-2-24]", "log P (acid)": 1.11}, {"smiles": "O=C(Nc1ncn(Cc2c(Cl)cccc2Cl)n1)c1cccnc1", "note": "[Compound I-2-8]", "log P (acid)": 1.39}, {"smiles": "O=C(Nc1ncn(-c2c(Cl)cc(S(=O)(=O)C(F)(F)F)cc2Cl)n1)c1cccnc1", "note": "[Compound I-2-3]", "log P (acid)": 2.02}]}, {"tested_on": "not listed separately", "assay": "log P determination by LC-MS in the acidic range", "format": "physicochemical", "details": "Table 3; HPLC on reversed-phase column (C 18), 55° C., acidic range (pH 2.7 or pH 2.3)", "excerpt": "as §2", "values": [{"smiles": "O=C(Nc1nn(-c2ncccc2Cl)nc1Cl)c1cccnc1", "note": "[Compound I-3-21]", "log P (acid)": 1.51}, {"smiles": "Cc1nn(-c2ccccc2Cl)nc1NC(=O)c1cccnc1", "note": "[Compound I-3-23]", "log P (acid)": 1.71}, {"smiles": "Cc1nn(-c2ccc(Cl)cc2Cl)nc1NC(=O)c1cccnc1", "note": "[Compound I-3-19]", "log P (acid)": 2.24}, {"smiles": "O=C(Nc1nn(-c2ccccc2Cl)nc1Cl)c1cccnc1", "note": "[Compound I-3-13]", "log P (acid)": 2.04}]}, {"tested_on": "not listed separately", "assay": "log P determination by LC-MS in the acidic range", "format": "physicochemical", "details": "Table 4; HPLC on reversed-phase column (C 18), 55° C., acidic range (pH 2.7 or pH 2.3)", "excerpt": "as §2", "values": [{"smiles": "CCCCNC(=O)Cn1nnc(NC(=O)c2cccnc2)n1", "note": "[Compound I-4-11]", "log P (acid)": 0.97}, {"smiles": "CCOC(=O)Cn1nnc(NC(=O)c2cccnc2)n1", "note": "[Compound I-4-5]", "log P (acid)": 0.71}]}, {"tested_on": "not listed separately", "assay": "log P determination by LC-MS in the acidic range", "format": "physicochemical", "details": "amines of the formula (II-1); acidic range pH 2.7 (0.1% formic acid/acetonitrile) or pH 2.3 (0.1% phosphoric acid/acetonitrile)", "excerpt": "as §2", "values": [{"smiles": "Cc1ccnc(Cn2nc(N)cc2C)n1", "note": "[II-1-16]", "log P (acid)": 0.02}, {"smiles": "COc1nn(Cn2nc(N)cc2C)c(=O)n1C1CC1", "note": "[II-1-47]", "log P (acid)": 0.72}, {"smiles": "CC(C)=CCn1nc(N)cc1C", "note": "[II-1-59]", "log P (acid)": 0.73}, {"smiles": "Cc1cc(N)nn1CN1CCS/C1=N/C#N", "note": "[II-1-44]", "log P (acid)": 0.44}, {"smiles": "Cc1cc(C)nc(Cn2nc(N)cc2C)n1", "note": "[II-1-9]", "log P (acid)": 0.42}, {"smiles": "COc1cc(OC)nc(Cn2nc(N)cc2C)n1", "note": "[II-1-12]", "log P (acid)": 0.81}, {"smiles": "Cc1cc(N)nn1Cn1nc(C)n(C)c1=O", "note": "[II-1-46]", "log P (acid)": "<−0.23"}, {"smiles": "Nc1cc(C2CC2)n(Cc2ccccc2)n1", "note": "[II-1-2]", "log P (acid)": 1.36}, {"smiles": "Cc1cc(N)nn1CC1CC1(Cl)Cl", "note": "(centres unmarked) [II-1-53]", "log P (acid)": 1.12}, {"smiles": "N#Cc1cc(N)nn1Cc1ncccn1", "note": "[II-1-62]", "log P (acid)": 0.20}, {"smiles": "Nc1ccn(C(CF)CF)n1", "note": "[II-1-7]", "log P (acid)": "−0.09"}, {"smiles": "C#CCn1nc(N)cc1C", "note": "[II-1-20]", "log P (acid)": "−0.15"}, {"smiles": "Cc1cc(N)nn1Cn1nc(C2CC2)n(C2CC2)c1=O", "note": "[II-1-50]", "log P (acid)": 0.98}, {"smiles": "Cc1cc(N)nn1Cc1cccnc1", "note": "[II-1-28]", "log P (acid)": "<−0.23"}, {"smiles": "Nc1cc(Cl)n(Cc2ncccn2)n1", "note": "[II-1-36]", "log P (acid)": 0.49}, {"smiles": "Cc1cc(N)nn1CCCl", "note": "[II-1-13]", "log P (acid)": 0.13}, {"smiles": "Cc1cc(N)nn1-c1cnccn1", "note": "[II-1-6]", "log P (acid)": 0.8}, {"smiles": "Cc1cc(N)nn1C(C)(C)C#N", "note": "[II-1-37]", "log P (acid)": 0.64}]}, {"tested_on": "not listed separately", "assay": "log P determination by LC-MS in the acidic range", "format": "physicochemical", "details": "pH 2.7, amines of the formula (II-1); acidic range pH 2.7 (0.1% formic acid/acetonitrile) or pH 2.3 (0.1% phosphoric acid/acetonitrile); read-out: log P (acid)", "excerpt": "as §2", "values": [{"smiles": "Nc1cc(Br)n(Cc2ncccn2)n1", "note": "[II-1-30, 5-Bromo-1-(pyrimidin-2-ylmethyl)-1H-pyrazole-3-amine]", "chromatographic logP": 0.56}, {"smiles": "CCSCn1nc(N)cc1C", "note": "[II-1-61, 1-[(Ethylsulphanyl)methyl]-5-methyl-1H-pyrazole-3-amine]", "chromatographic logP": 0.63}]}, {"tested_on": "not listed separately", "assay": "log P determination by LC-MS in the acidic range", "format": "physicochemical", "details": "pH 2.7, values given in the synthesis examples and NMR lists; read-out: HPLC-MS: log P", "excerpt": "as §2", "values": [{"smiles": "Nc1cc(Br)n(Cc2ncccn2)n1", "note": "[II-1-30, 5-Bromo-1-(pyrimidin-2-ylmethyl)-1H-pyrazole-3-amine]", "chromatographic logP": 0.56}, {"smiles": "Cc1cc(NC(=O)OC(C)(C)C)nn1Cc1ncccn1", "note": "[tert-Butyl[5-methyl-1-(pyrimidin-2-ylmethyl)-1H-pyrazol-3-yl]carbamate]", "chromatographic logP": 1.75}, {"smiles": "COC(=O)c1cc(C)n(Cc2ncccn2)n1", "note": "[Methyl 5-methyl-1-(pyrimidin-2-ylmethyl)-1H-pyrazole-3-carboxylate]", "chromatographic logP": 0.98}, {"smiles": "Cc1cc(N)nn1-c1ncccn1", "note": "[5-Methyl-1-(pyrimidin-2-yl)-1H-pyrazole-3-amine]", "chromatographic logP": 0.5}, {"smiles": "CCSCn1nc(N)cc1C", "note": "[II-1-61, 1-[(Ethylsulphanyl)methyl]-5-methyl-1H-pyrazole-3-amine]", "chromatographic logP": 0.63}]}]}
